Test results taken from US20160220569A1, “CDK4/6 Inhibitor Dosage Formulations For The Protection Of Hematopoietic Stem And Progenitor Cells During Chemotherapy” (G1 Therapeutics, Inc., priority 2015, published 2016).
Read-outs that look alike come from different tables or passages of the source.

Experiments:
[1] = Compound 1 PK dosed Days 1-5 with topotecan; assay type: in vivo, human; conditions: human, plasma, intravenous
Experimental: Analysis of plasma concentration versus time data for calculation of standard pharmacokinetic (PK) parameters following intravenous infusion administration was conducted using Phoenix WinNonlin version 6.3 using a nominal infusion duration and scheduled blood sampling times.

[2] = Blood cell counts in mice after 5-Fluorouracil with or without Compound 1; assay type: in vivo; conditions: Compound 1 100 mg/kg before 5FU
Experimental: Blood cell counts for neutrophils, lymphocytes, red blood cells (RBCs), and platelets were conducted.

`CN1CCN(c2ccc(Nc3ncc4cc5n(c4n3)C3(CCCCC3)CNC5=O)nc2)CC1` [Compound 1, 2′-((5-(4-methylpiperazin-1-yl)pyridin-2-yl)amino)-7′,8′-dihydro-6′H-spiro[cyclohexane-1,9′-pyrazino[1′,2′:1,5]pyrrolo[2,3-d]pyrimidin]-6′-one] showed an AUC(0-inf) ([1]; 200 mg/m^2 with Topotecan 1.25 mg/m^2 (Cohort 2), Day 1, individual subjects, read-out: AUCinf) of 2320 ng·h/mL, a Cmax ([1]; 200 mg/m^2 with Topotecan 1.25 mg/m^2 (Cohort 2), Day 1, individual subjects, read-out: Cmax) of 1000 ng/mL and a half-life ([1]; 200 mg/m^2 with Topotecan 1.25 mg/m^2 (Cohort 2), Day 1, individual subjects, read-out: t½ (converted)) of 368 min. The Cmax ([1]; 200 mg/m^2 with Topotecan 1.25 mg/m^2 (Cohort 2), Day 4, Geometric Mean, read-out: Cmax) was 739 ng/mL, the half-life ([1]; 200 mg/m^2 with Topotecan 1.25 mg/m^2 (Cohort 2), Day 4, Geometric Mean, read-out: t½ (converted)) was 530 min and the Cmax ([1]; 200 mg/m^2 with Topotecan 1.25 mg/m^2 (Cohort 2), Day 4, Mean, read-out: Cmax) was 752 ng/mL. For the same compound, the half-life ([1]; 200 mg/m^2 with Topotecan 1.25 mg/m^2 (Cohort 2), Day 4, Mean, read-out: t½ (converted)) was 537 min, the half-life ([1]; 200 mg/m^2 with Topotecan 1.25 mg/m^2 (Cohort 2), Day 4, Median, read-out: t½ (converted)) was 546 min and the Cmax ([1]; 200 mg/m^2 with Topotecan 1.25 mg/m^2 (Cohort 2), Day 4, individual subjects, read-out: Cmax) was 904 ng/mL. For the same compound, the half-life ([1]; 200 mg/m^2 with Topotecan 1.25 mg/m^2 (Cohort 2), Day 4, individual subjects, read-out: t½ (converted)) was 429 min, the AUC(0-inf) ([1]; 200 mg/m^2 with Topotecan […]^2 (Cohort 1), Day 1, Geo. Mean, read-out: AUCinf) was 2120 ng·h/mL and the Cmax ([1]; 200 mg/m^2 with Topotecan […]^2 (Cohort 1), Day 1, Geo. Mean, read-out: Cmax) was 932 ng/mL. For the same compound, the half-life ([1]; 200 mg/m^2 with Topotecan […]^2 (Cohort 1), Day 1, Geo. Mean, read-out: t½ (converted)) was 355 min, the AUC(0-inf) ([1]; 200 mg/m^2 with Topotecan […]^2 (Cohort 1), Day 1, Mean, read-out: AUCinf) was 2140 ng·h/mL and the Cmax ([1]; 200 mg/m^2 with Topotecan […]^2 (Cohort 1), Day 1, Mean, read-out: Cmax) was 955 ng/mL. The half-life ([1]; 200 mg/m^2 with Topotecan […]^2 (Cohort 1), Day 1, Mean, read-out: t½ (converted)) was 355 min, the AUC(0-inf) ([1]; 200 mg/m^2 with Topotecan […]^2 (Cohort 1), Day 1, Median, read-out: AUCinf) was 2140 ng·h/mL and the Cmax ([1]; 200 mg/m^2 with Topotecan […]^2 (Cohort 1), Day 1, Median, read-out: Cmax) was 955 ng/mL. For the same compound, the half-life ([1]; 200 mg/m^2 with Topotecan […]^2 (Cohort 1), Day 1, Median, read-out: t½ (converted)) was 355 min, the AUC(0-inf) ([1]; 200 mg/m^2 with Topotecan […]^2 (Cohort 1), Day 1, individual subjects, read-out: AUCinf) was 1840 ng·h/mL and the half-life ([1]; 200 mg/m^2 with Topotecan […]^2 (Cohort 1), Day 1, individual subjects, read-out: t½ (converted)) was 336 min. The Cmax ([1]; 200 mg/m^2 with Topotecan […]^2 (Cohort 1), Day 4, Geometric Mean, read-out: Cmax) was 993 ng/mL, the half-life ([1]; 200 mg/m^2 with Topotecan […]^2 (Cohort 1), Day 4, Geometric Mean, read-out: t½ (converted)) was 479 min and the Cmax ([1]; 200 mg/m^2 with Topotecan […]^2 (Cohort 1), Day 4, Mean, read-out: Cmax) was 999 ng/mL. It also gave a half-life ([1]; 200 mg/m^2 with Topotecan […]^2 (Cohort 1), Day 4, Mean, read-out: t½ (converted)) of 484 min, a Cmax ([1]; 200 mg/m^2 with Topotecan […]^2 (Cohort 1), Day 4, Median, read-out: Cmax) of 999 ng/mL and a half-life ([1]; 200 mg/m^2 with Topotecan […]^2 (Cohort 1), Day 4, Median, read-out: t½ (converted)) of 484 min. It also gave a half-life ([1]; 200 mg/m^2 with Topotecan […]^2 (Cohort 1), Day 4, individual subjects, read-out: t½ (converted)) of 418 min, an AUC(0-inf) ([1]; Cohort 1 (Topotecan […]^2), Compound 1 200 mg/m^2, Day 1, mean, read-out: AUCinf averaged) of 2140 ng·h/mL and a Cmax ([1]; Cohort 1 (Topotecan […]^2), Compound 1 200 mg/m^2, Day 1, mean, read-out: Cmax averaged) of 955 ng/mL. For the same compound, the half-life ([1]; Cohort 1 (Topotecan […]^2), Compound 1 200 mg/m^2, Day 1, mean, read-out: Half-lives averaged (converted)) was 355 min, the half-life ([1]; Cohort 1 (Topotecan […]^2), Compound 1 200 mg/m^2, Day 4, mean, read-out: Half-lives averaged (converted)) was 484 min and the Cmax ([1]; Cohort 1 (Topotecan […]^2), Compound 1 200 mg/m^2, Day 4, mean, read-out: average Cmax) was 999 ng/mL. The AUC(0-inf) ([1]; Cohort 2 (Topotecan 1.25 mg/m^2), Compound 1 200 mg/m^2, Day 1, mean, read-out: AUCinf averaged) was 2490 ng·h/mL, the Cmax ([1]; Cohort 2 (Topotecan 1.25 mg/m^2), Compound 1 200 mg/m^2, Day 1, mean, read-out: Cmax averaged) was 904 ng/mL and the half-life ([1]; Cohort 2 (Topotecan 1.25 mg/m^2), Compound 1 200 mg/m^2, Day 1, mean, read-out: Half-lives averaged (converted)) was 472 min. It also gave a half-life ([1]; Cohort 2 (Topotecan 1.25 mg/m^2), Compound 1 200 mg/m^2, Day 4, mean, read-out: Half-lives averaged (converted)) of 537 min, a Cmax ([1]; Cohort 2 (Topotecan 1.25 mg/m^2), Compound 1 200 mg/m^2, Day 4, mean, read-out: average Cmax) of 752 ng/mL and a concentration at 24.5 h ([1]; Cohort 2 (Topotecan 1.25 mg/m^2), Day 1, mean, read-out: concentration at 24.5 hours after the start of infusion, averaging) of 19.5 ng/mL. The concentration at 24.5 h ([1]; Cohort 2 (Topotecan 1.25 mg/m^2), Day 4, mean, read-out: concentration at 24.5 hours after dosing, averaged) was 22.7 ng/mL, the AUC(0-inf) ([1]; Cohort 3 (Topotecan 0.75 mg/m^2), Compound 1 200 mg/m^2, Day 1, mean, read-out: AUCinf averaged) was 2200 ng·h/mL and the Cmax ([1]; Cohort 3 (Topotecan 0.75 mg/m^2), Compound 1 200 mg/m^2, Day 1, mean, read-out: Cmax averaged) was 1140 ng/mL. The half-life ([1]; Cohort 3 (Topotecan 0.75 mg/m^2), Compound 1 200 mg/m^2, Day 1, mean, read-out: Half-lives averaged (converted)) was 444 min, the half-life ([1]; Cohort 3 (Topotecan 0.75 mg/m^2), Compound 1 200 mg/m^2, Day 4, mean, read-out: Half-lives averaged (converted)) was 529 min and the Cmax ([1]; Cohort 3 (Topotecan 0.75 mg/m^2), Compound 1 200 mg/m^2, Day 4, mean, read-out: average Cmax) was 1330 ng/mL. For the same compound, the concentration at 24.5 h ([1]; Cohort 3 (Topotecan 0.75 mg/m^2), Day 1, mean, read-out: concentration at 24.5 hours after the start of infusion, averaging) was 13.3 ng/mL, the concentration at 24.5 h ([1]; Cohort 3 (Topotecan 0.75 mg/m^2), Day 4, mean, read-out: concentration at 24.5 hours after dosing, averaged) was 18.2 ng/mL and the “loss of lymphocytes upon 5FU chemotherapy” value [2] was “significantly less loss”. For the same compound, the “loss of neutrophils upon 5FU chemotherapy” value [2] was “significantly less loss”, the “loss of platelets upon 5FU chemotherapy” value [2] was “significantly less loss” and the “loss of red blood cells upon 5FU chemotherapy” value [2] was “significantly less loss”.
